In patent EP4790066A1, “GLP-1R/GIPR/GCGR TRIPLE AGONIST ANALOGUE AND USE THEREOF” (Shenzhen Bay Laboratory, priority 2023, dated 2025):
*1 amine or outer side, *2 acyl side, *3 side chain or, on linkers, in order; H or OH if unused. Where a SMILES comes first, the peptide text is derived from it. Bridges are numbered along the chain shown (N, C = ends). [ ]: non-standard residue; d: D form. X1 = O=C(O)CCCCCCCCCCCCCCCCCCC(=O)N[C@@H](CCCCNC(=O)COCCOCCNC(=O)COCCOCCNC(=O)CCC(=O)N(CCNC(=O)C[*:1])CCNC(=O)C[*:2])C(=O)O; αMeL = CC(C)C[C@](C)(N)C(=O)O; Aib = CC(C)(N)C(=O)O

Legend:
Type in all cases: cell-based
GLP-1R = biological target: T1, GLP-1R (Homo sapiens, UniProt P43220); experiment: CreLuc method (CRE-luciferase reporter), HEK293/pGM-CREB-L-Luc/GLP-1R pool; conditions: 6 h incubation, read-out: EC50 (pM) for each receptor GLP-1R
T1 construct: expressed in transfected cells
T1 sequence (P43220 24-463, species assumed): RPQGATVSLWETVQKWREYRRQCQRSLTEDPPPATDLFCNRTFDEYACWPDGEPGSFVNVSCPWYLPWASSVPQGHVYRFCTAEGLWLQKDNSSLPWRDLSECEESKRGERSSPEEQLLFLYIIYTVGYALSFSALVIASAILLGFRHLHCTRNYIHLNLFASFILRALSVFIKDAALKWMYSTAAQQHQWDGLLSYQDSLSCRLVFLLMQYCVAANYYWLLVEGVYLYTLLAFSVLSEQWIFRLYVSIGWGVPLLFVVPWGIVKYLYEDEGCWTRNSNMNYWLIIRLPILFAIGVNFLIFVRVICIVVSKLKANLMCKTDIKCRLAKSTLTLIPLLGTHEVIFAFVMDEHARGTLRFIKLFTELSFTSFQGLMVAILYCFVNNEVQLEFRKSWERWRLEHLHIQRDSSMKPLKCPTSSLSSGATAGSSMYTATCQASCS
Experimental: (§1) 1. Insulinotropic analogues can bind to the target receptor on the cell membrane, activate the cAMP response element (CRE), and initiate the expression of downstream luciferase. The expression level is positively correlated with the biological activity of the analogue being tested. After activation, luciferase substrate is added for chemiluminescence detection, and the luminescence intensity is determined to characterize the biological activity of the test compounds. Therefore, the target peptide derivatives (or polypeptide derivatives, i.e., TG1-TG94) prepared in Example 1 and Example 2 can be tested by the CreLuc method. The specific steps are as follows: The stably transfected cell lines HEK293/pGM-CREB-L-Luc/GLP-1R pool, HEK293/pGM-CREB-L-Luc/GIPR pool, and 293HEK/pGM-CREB-L-Luc/GCGR pool were constructed. […] The corresponding test cells were digested (1 min), dispersed by pipetting, and centrifuged (1000 rpm, 5 min). The culture medium was discarded, and the cells were resuspended in freestyle medium, centrifuged again, collected, and counted. The cells were then diluted to a cell density of 5 x 10^5 cells/mL and then added to the detection wells of a 384-well plate (40 µL/20,000 cells/well). Echo was used to add the corresponding analyte dilution series. The cell plate was incubated at 37°C and 5% CO2 for 6 h, then ONE-GLO (20 µL/well) was added for detection. It was kept in the dark for 3 min, then a chemiluminescent microplate reader was used for determination. The plate was read within 30 min, and the determination results were recorded. […] Table 3: EC50 values for target peptide derivatives

GCGR = biological target: T2, GCGR (Homo sapiens, UniProt P47871); experiment: CreLuc method (CRE-luciferase reporter), 293HEK/pGM-CREB-L-Luc/GCGR pool; conditions: 6 h incubation, read-out: EC50 (pM) for each receptor GCGR
T2 construct: expressed in transfected cells
T2 sequence (P47871 26-477, species assumed): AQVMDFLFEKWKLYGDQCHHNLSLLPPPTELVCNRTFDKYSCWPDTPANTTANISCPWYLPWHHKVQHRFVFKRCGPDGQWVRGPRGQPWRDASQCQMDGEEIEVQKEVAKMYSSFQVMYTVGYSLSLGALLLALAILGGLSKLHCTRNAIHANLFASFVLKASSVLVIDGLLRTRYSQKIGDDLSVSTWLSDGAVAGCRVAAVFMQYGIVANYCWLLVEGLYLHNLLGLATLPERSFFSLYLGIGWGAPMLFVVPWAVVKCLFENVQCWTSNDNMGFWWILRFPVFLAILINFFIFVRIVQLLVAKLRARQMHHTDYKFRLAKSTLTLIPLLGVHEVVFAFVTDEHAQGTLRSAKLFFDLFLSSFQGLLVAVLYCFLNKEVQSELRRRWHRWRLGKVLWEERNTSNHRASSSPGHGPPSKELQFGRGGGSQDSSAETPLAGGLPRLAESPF
Experimental: as §1

GIPR = biological target: T3, GIPR (Homo sapiens, UniProt P48546); experiment: CreLuc method (CRE-luciferase reporter), HEK293/pGM-CREB-L-Luc/GIPR pool; conditions: 6 h incubation, read-out: EC50 (pM) for each receptor GIPR
T3 construct: expressed in transfected cells
T3 sequence (P48546 22-466): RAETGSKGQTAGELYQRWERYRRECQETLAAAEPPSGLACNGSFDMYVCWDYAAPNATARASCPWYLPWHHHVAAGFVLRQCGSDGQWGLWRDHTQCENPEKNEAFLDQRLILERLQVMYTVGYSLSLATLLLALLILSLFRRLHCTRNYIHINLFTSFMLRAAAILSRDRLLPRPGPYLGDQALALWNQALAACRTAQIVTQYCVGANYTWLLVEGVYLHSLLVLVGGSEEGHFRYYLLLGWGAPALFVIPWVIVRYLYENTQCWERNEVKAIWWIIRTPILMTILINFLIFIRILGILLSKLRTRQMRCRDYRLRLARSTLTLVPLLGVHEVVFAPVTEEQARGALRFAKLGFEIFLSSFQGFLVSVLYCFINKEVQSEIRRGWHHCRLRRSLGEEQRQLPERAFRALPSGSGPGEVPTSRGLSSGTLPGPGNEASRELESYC
Experimental: as §1

| Compound | EC50 (GLP-1R) [pM] | EC50 (GCGR) [pM] | EC50 (GIPR) [pM] |
| --- | --- | --- | --- |
| CC[C@H](C)[C@@H]1NC(=O)[C@H](Cc2ccccc2)NC(=O)[C@@H](NC(=O)[C@@H](C)NC(=O)[C@H](CCC(N)=O)NC(=O)[C@H](C)NC(=O)[C@H](CCCCNC(C)=O)NC(=O)[C@H](CCCCN)NC(=O)[C@H](CC(=O)O)NC(=O)[C@H](CC(C)C)NC(=O)[C@](C)(CC(C)C)NC(=O)[C@@H](NC(=O)[C@H](CO)NC(=O)[C@H](Cc2ccc(O)cc2)NC(=O)[C@H](CC(=O)O)NC(=O)[C@H](CO)NC(=O)[C@@H](NC(=O)[C@H](Cc2ccccc2)NC(=O)[C@@H](NC(=O)CNC(=O)[C@H](CCC(N)=O)NC(=O)C(C)(C)NC(=O)[C@@H](N)Cc2ccc(O)cc2)[C@@H](C)O)[C@@H](C)O)[C@@H](C)CC)CSCC(=O)NCCN(C(=O)CCC(=O)NCCOCCOCC(=O)NCCOCCOCC(=O)NCCCC[C@H](NC(=O)CCCCCCCCCCCCCCCCCCC(=O)O)C(=O)O)CCNC(=O)CSC[C@@H](C(=O)NCC(=O)NCC(=O)N2CCC[C@H]2C(=O)N[C@@H](CO)C(=O)N[C@@H](CO)C(=O)NCC(=O)N[C@@H](C)C(=O)N2CCC[C@H]2C(=O)N2CCC[C@H]2C(=O)N2CCC[C@H]2C(=O)N[C@@H](CO)C(N)=O)NC(=O)[C@H](CC(C)C)NC(=O)[C@H](CC(C)C)NC(=O)[C@H](Cc2ccc(O)cc2)NC(=O)[C@H](CCC(=O)O)NC1=O [TG31] (H-Y[Aib]QGTFTSDYSI[αMeL]LDKK(Ac)AQ[dA]CFIEYLLCGGPSSGAPPPS-NH2; linker 21-28 via X1) | 32.7 | 440 | 11.4 |
| CC[C@H](C)[C@@H]1NC(=O)[C@H](Cc2ccccc2)NC(=O)[C@@H](NC(=O)[C@H](Cc2c[nH]cn2)NC(=O)[C@H](CCC(N)=O)NC(=O)[C@H](C)NC(=O)[C@H](CCCCNC(C)=O)NC(=O)[C@H](CCCCN)NC(=O)[C@H](CC(=O)O)NC(=O)[C@H](CC(C)C)NC(=O)[C@](C)(CC(C)C)NC(=O)[C@@H](NC(=O)[C@H](CO)NC(=O)[C@H](Cc2ccc(O)cc2)NC(=O)[C@H](CC(=O)O)NC(=O)[C@H](CO)NC(=O)[C@@H](NC(=O)[C@H](Cc2ccccc2)NC(=O)[C@@H](NC(=O)CNC(=O)[C@H](CCC(N)=O)NC(=O)C(C)(C)NC(=O)[C@@H](N)Cc2ccc(O)cc2)[C@@H](C)O)[C@@H](C)O)[C@@H](C)CC)CSCC(=O)NCCN(C(=O)CCC(=O)NCCOCCOCC(=O)NCCOCCOCC(=O)NCCCC[C@H](NC(=O)CCCCCCCCCCCCCCCCCCC(=O)O)C(=O)O)CCNC(=O)CSC[C@@H](C(=O)NCC(=O)NCC(=O)N2CCC[C@H]2C(=O)N[C@@H](CO)C(=O)N[C@@H](CO)C(=O)NCC(=O)N[C@@H](C)C(=O)N2CCC[C@H]2C(=O)N2CCC[C@H]2C(=O)N2CCC[C@H]2C(=O)N[C@@H](CO)C(N)=O)NC(=O)[C@H](CC(C)C)NC(=O)[C@H](CC(C)C)NC(=O)[C@H](Cc2ccc(O)cc2)NC(=O)[C@H](CCC(=O)O)NC1=O [TG32] (H-Y[Aib]QGTFTSDYSI[αMeL]LDKK(Ac)AQHCFIEYLLCGGPSSGAPPPS-NH2; linker 21-28 via X1) | 34 | 197 | 11.7 |
| CC[C@H](C)[C@@H]1NC(=O)[C@H](Cc2ccccc2)NC(=O)[C@@H](NC(=O)[C@H](CCC(N)=O)NC(=O)[C@H](CCC(N)=O)NC(=O)[C@H](C)NC(=O)[C@H](CCCCNC(C)=O)NC(=O)[C@H](CCCCN)NC(=O)[C@H](CC(=O)O)NC(=O)[C@H](CC(C)C)NC(=O)[C@](C)(CC(C)C)NC(=O)[C@@H](NC(=O)[C@H](CO)NC(=O)[C@H](Cc2ccc(O)cc2)NC(=O)[C@H](CC(=O)O)NC(=O)[C@H](CO)NC(=O)[C@@H](NC(=O)[C@H](Cc2ccccc2)NC(=O)[C@@H](NC(=O)CNC(=O)[C@H](CCC(N)=O)NC(=O)C(C)(C)NC(=O)[C@@H](N)Cc2ccc(O)cc2)[C@@H](C)O)[C@@H](C)O)[C@@H](C)CC)CSCC(=O)NCCN(C(=O)CCC(=O)NCCOCCOCC(=O)NCCOCCOCC(=O)NCCCC[C@H](NC(=O)CCCCCCCCCCCCCCCCCCC(=O)O)C(=O)O)CCNC(=O)CSC[C@@H](C(=O)NCC(=O)NCC(=O)N2CCC[C@H]2C(=O)N[C@@H](CO)C(=O)N[C@@H](CO)C(=O)NCC(=O)N[C@@H](C)C(=O)N2CCC[C@H]2C(=O)N2CCC[C@H]2C(=O)N2CCC[C@H]2C(=O)N[C@@H](CO)C(N)=O)NC(=O)[C@H](CC(C)C)NC(=O)[C@H](CC(C)C)NC(=O)[C@H](Cc2ccc(O)cc2)NC(=O)[C@H](CCC(=O)O)NC1=O [TG33] (H-Y[Aib]QGTFTSDYSI[αMeL]LDKK(Ac)AQQCFIEYLLCGGPSSGAPPPS-NH2; linker 21-28 via X1) | 23.7 | 96.8 | 7.6 |
| CC[C@H](C)[C@@H]1NC(=O)[C@H](Cc2ccccc2)NC(=O)[C@@H](NC(=O)C(C)(C)NC(=O)[C@H](CCC(N)=O)NC(=O)[C@H](C)NC(=O)[C@H](CCCNC(=N)N)NC(=O)[C@H](CCCCN)NC(=O)[C@H](CC(=O)O)NC(=O)[C@H](CC(C)C)NC(=O)[C@](C)(CC(C)C)NC(=O)[C@@H](NC(=O)[C@H](CO)NC(=O)[C@H](Cc2ccc(O)cc2)NC(=O)[C@H](CC(=O)O)NC(=O)[C@H](CO)NC(=O)[C@@H](NC(=O)[C@H](Cc2ccccc2)NC(=O)[C@@H](NC(=O)CNC(=O)[C@H](CCC(N)=O)NC(=O)C(C)(C)NC(=O)[C@@H](N)Cc2ccc(O)cc2)[C@@H](C)O)[C@@H](C)O)[C@@H](C)CC)CSCC(=O)NCCN(C(=O)CCC(=O)NCCOCCOCC(=O)NCCOCCOCC(=O)NCCCC[C@H](NC(=O)CCCCCCCCCCCCCCCCCCC(=O)O)C(=O)O)CCNC(=O)CSC[C@@H](C(=O)NCC(=O)NCC(=O)N2CCC[C@H]2C(=O)N[C@@H](CO)C(=O)N[C@@H](CO)C(=O)NCC(=O)N[C@@H](C)C(=O)N2CCC[C@H]2C(=O)N2CCC[C@H]2C(=O)N2CCC[C@H]2C(=O)N[C@@H](CO)C(N)=O)NC(=O)[C@H](CC(C)C)NC(=O)[C@H](CC(C)C)NC(=O)[C@H](Cc2ccc(O)cc2)NC(=O)[C@H](CCC(=O)O)NC1=O [TG35] | 40.1 | 273 | 15.5 |
| CC[C@H](C)[C@@H]1NC(=O)[C@H](Cc2ccccc2)NC(=O)[C@@H](NC(=O)C(C)(C)NC(=O)[C@H](CCC(N)=O)NC(=O)[C@H](C)NC(=O)[C@H](CCCCNC(C)=O)NC(=O)[C@H](CCCCN)NC(=O)[C@H](CCC(=O)O)NC(=O)[C@H](CC(C)C)NC(=O)[C@](C)(CC(C)C)NC(=O)[C@@H](NC(=O)[C@H](CO)NC(=O)[C@H](Cc2ccc(O)cc2)NC(=O)[C@H](CC(=O)O)NC(=O)[C@H](CO)NC(=O)[C@@H](NC(=O)[C@H](Cc2ccccc2)NC(=O)[C@@H](NC(=O)CNC(=O)[C@H](CCC(N)=O)NC(=O)C(C)(C)NC(=O)[C@@H](N)Cc2ccc(O)cc2)[C@@H](C)O)[C@@H](C)O)[C@@H](C)CC)CSCC(=O)NCCN(C(=O)CCC(=O)NCCOCCOCC(=O)NCCOCCOCC(=O)NCCCC[C@H](NC(=O)CCCCCCCCCCCCCCCCCCC(=O)O)C(=O)O)CCNC(=O)CSC[C@@H](C(=O)NCC(=O)NCC(=O)N2CCC[C@H]2C(=O)N[C@@H](CO)C(=O)N[C@@H](CO)C(=O)NCC(=O)N[C@@H](C)C(=O)N2CCC[C@H]2C(=O)N2CCC[C@H]2C(=O)N2CCC[C@H]2C(=O)N[C@@H](CO)C(N)=O)NC(=O)[C@H](CC(C)C)NC(=O)[C@H](CC(C)C)NC(=O)[C@H](Cc2ccc(O)cc2)NC(=O)[C@H](CCC(=O)O)NC1=O [TG36] | 34.1 | 813 | 10.8 |
| CC[C@H](C)[C@@H]1NC(=O)[C@H](Cc2ccccc2)NC(=O)[C@@H](NC(=O)C(C)(C)NC(=O)[C@H](CCC(N)=O)NC(=O)[C@H](C)NC(=O)[C@H](CCCCNC(C)=O)NC(=O)[C@H](CCCCN)NC(=O)[C@H](CC(=O)O)NC(=O)[C@H](CC(C)C)NC(=O)[C@](C)(CC(C)C)NC(=O)[C@@H](NC(=O)[C@H](CO)NC(=O)[C@H](Cc2ccncc2)NC(=O)[C@H](CC(=O)O)NC(=O)[C@H](CO)NC(=O)[C@@H](NC(=O)[C@H](Cc2ccccc2)NC(=O)[C@@H](NC(=O)CNC(=O)[C@H](CCC(N)=O)NC(=O)C(C)(C)NC(=O)[C@@H](N)Cc2ccc(O)cc2)[C@@H](C)O)[C@@H](C)O)[C@@H](C)CC)CSCC(=O)NCCN(C(=O)CCC(=O)NCCOCCOCC(=O)NCCOCCOCC(=O)NCCCC[C@H](NC(=O)CCCCCCCCCCCCCCCCCCC(=O)O)C(=O)O)CCNC(=O)CSC[C@@H](C(=O)NCC(=O)NCC(=O)N2CCC[C@H]2C(=O)N[C@@H](CO)C(=O)N[C@@H](CO)C(=O)NCC(=O)N[C@@H](C)C(=O)N2CCC[C@H]2C(=O)N2CCC[C@H]2C(=O)N2CCC[C@H]2C(=O)N[C@@H](CO)C(N)=O)NC(=O)[C@H](CC(C)C)NC(=O)[C@H](CC(C)C)NC(=O)[C@H](Cc2ccc(O)cc2)NC(=O)[C@H](CCC(=O)O)NC1=O [TG38] | 70.2 | 232 | 14.5 |
